From patent US20110021567A1, “PREPARATION OF LENALIDOMIDE” (DR. REDDY'S LABORATORIES LTD., priority 2008, published 2011)

Experiment: storage stability of the amorphous form (material remains amorphous)
Format: physicochemical
Settings: five days at 0-5° C., packaged in a polyethylene bag

## Nc1cccc2c1CN(C1CCC(=O)NC1=O)C2=O (stereo not shown) [Example 8, 3-(4-amino-1-oxo-1,3-dihydro-2H-isoindol-2-yl)piperidine-2,6-dione]
  physical form on storage: remains amorphous
